Laboratory results reported in article PMC7014678 (International Journal of Molecular Sciences, 2020).
Where two headings read alike, the source gives them in different places.

What was measured:
Rv3273-β [1] = target: T1, Rv3273-β (Mycobacterium tuberculosis, UniProt P96878); test: biochemical
BpsCA-β [2] = target: T2, BpsCA-β (Burkholderia pseudomallei, UniProt Q63Y17); test: biochemical
T2 construct: gene BPSL0372

BpsCA-γ = target: T3, BpsCA-γ; assay type: biochemical, Burkholderia pseudomallei
T3 construct: gene BpsCA-gamma

VchCA-α [3] = target: T4, VchCA-α (Vibrio cholerae, UniProt Q9KMP6); test: biochemical
T4 construct: gene VC_A0274
T4 sequence (Q9KMP6 21-239 limits assumed): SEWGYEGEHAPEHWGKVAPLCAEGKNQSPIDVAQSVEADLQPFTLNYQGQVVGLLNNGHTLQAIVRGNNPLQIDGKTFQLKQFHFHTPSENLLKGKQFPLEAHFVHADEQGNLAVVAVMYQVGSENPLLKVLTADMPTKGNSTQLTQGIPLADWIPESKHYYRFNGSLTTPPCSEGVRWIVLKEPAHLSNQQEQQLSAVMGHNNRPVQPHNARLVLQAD

VchCA-β [4] = target: T5, VchCA-β (Vibrio cholerae, UniProt A0A086SLX8); test: biochemical
T5 construct: gene can
T5 sequence (A0A086SLX8 1-222): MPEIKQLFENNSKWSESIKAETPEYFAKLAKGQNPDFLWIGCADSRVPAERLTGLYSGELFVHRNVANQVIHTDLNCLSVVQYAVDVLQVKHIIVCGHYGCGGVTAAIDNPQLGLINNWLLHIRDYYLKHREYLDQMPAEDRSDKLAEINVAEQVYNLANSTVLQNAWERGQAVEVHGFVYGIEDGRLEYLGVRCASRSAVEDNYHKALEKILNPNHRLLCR

StCA2-β = target: T6, StCA2-β; test: stopped-flow CO2 hydration assay; assay type: biochemical, Salmonella enterica subsp. enterica serovar Typhimurium; details: CO2 1.7-17 mM; pH 8.3 TRIS; 20 mM Na2SO4; 15 min preincubation, room temperature
T6 construct: recombinant, obtained in-house; construct not described

Rv3273-β [5] = target: T1, Rv3273-β; test: biochemical; remark: listed apart in the source
VchCA-β [6] = target: T5, VchCA-β; test: biochemical; remark: listed apart in the source
BpsCA-β [7] = target: T2, BpsCA-β; test: biochemical; remark: listed apart in the source
VchCA-α [8] = target: T4, VchCA-α; test: biochemical; remark: listed apart in the source

T1 sequence (P96878 540-764 limits assumed): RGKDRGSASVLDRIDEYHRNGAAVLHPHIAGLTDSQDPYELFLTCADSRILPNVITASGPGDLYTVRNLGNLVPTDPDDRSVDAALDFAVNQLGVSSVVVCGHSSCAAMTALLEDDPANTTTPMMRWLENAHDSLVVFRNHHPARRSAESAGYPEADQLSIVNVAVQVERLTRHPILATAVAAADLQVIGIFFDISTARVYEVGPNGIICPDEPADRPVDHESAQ
T2 sequence (Q63Y17 1-256): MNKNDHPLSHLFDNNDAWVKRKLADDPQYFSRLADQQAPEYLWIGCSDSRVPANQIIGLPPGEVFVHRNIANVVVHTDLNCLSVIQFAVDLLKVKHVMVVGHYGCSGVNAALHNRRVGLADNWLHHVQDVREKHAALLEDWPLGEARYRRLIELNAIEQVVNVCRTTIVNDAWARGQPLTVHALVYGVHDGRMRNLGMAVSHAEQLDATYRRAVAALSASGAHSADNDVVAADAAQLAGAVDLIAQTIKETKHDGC

CC(O)CSCC(=O)Nc1ccc(S(N)(=O)=O)cc1 (stereo not drawn) [3e]
Ki (Rv3273-β [1]): 214 nM | Ki (BpsCA-β [2]): > 10000 nM | Ki (BpsCA-γ): 322 nM | Ki (VchCA-α [3]): 44.7 nM | Ki (VchCA-β [4]): 6650 nM

NS(=O)(=O)c1ccc(C[Se]c2ccc(NC(=O)CSc3ccc(Br)cc3)cc2)cc1 [5b]
Ki (StCA2-β): 8.2 nM | Ki (Rv3273-β [5]): > 10000 nM | Ki (BpsCA-β [2]): > 10000 nM | Ki (VchCA-α [3]): 45.8 nM | Ki (VchCA-β [4]): 581 nM

NS(=O)(=O)c1ccc(NC(=O)C[Se]c2ccccc2)cc1 [7a]
Ki (VchCA-β [6]): 96.3 nM | Ki (BpsCA-β [7]): 4090 nM | Ki (VchCA-α [8]): 2.2 nM | Ki (Rv3273-β [1]): 203 nM | Ki (BpsCA-γ; CO2 1.7-17 mM, buffer pH for γ-CA not stated, 20 mM Na2SO4, 15 min preincubation, room temperature): 304 nM

Cc1ccc([Se]CC(=O)Nc2ccc(S(N)(=O)=O)cc2)cc1 [7b]
Ki (Rv3273-β [5]): 283 nM | Ki (BpsCA-β [2]): > 10000 nM | Ki (VchCA-α [3]): 7.7 nM | Ki (VchCA-β [4]): 762 nM

Cc1ccccc1[Se]CC(=O)Nc1ccc(S(N)(=O)=O)cc1 [7c]
Ki (Rv3273-β [5]; read-out: Rv3273-β, inhibitor): > 10000 nM | Ki (BpsCA-β [2]; read-out: BpsCA-β, inhibitor): > 10000 nM | Ki (VchCA-α [3]; read-out: VchCA-α, inhibitor): 41.7 nM | Ki (VchCA-β [4]; read-out: VchCA-β, inhibitor): 6210 nM

NS(=O)(=O)c1ccc(CCNC(=O)C[Se]c2ccccc2)cc1 [8a]
Ki (Rv3273-β [5]): 1500 nM | Ki (BpsCA-β [2]): > 10000 nM | Ki (VchCA-α [3]): 44.4 nM | Ki (VchCA-β [4]): 6590 nM

COc1ccc([Se]CC(=O)NCCc2ccc(S(N)(=O)=O)cc2)cc1 [8c]
Ki (VchCA-β [6]): 85 nM | Ki (VchCA-α [8]): 3.2 nM | Ki (Rv3273-β [5]): > 10000 nM | Ki (BpsCA-β [2]): > 10000 nM

Cc1ccc(S(=O)(=O)N[C@H](C[Se]CC(=O)NCCc2ccc(S(N)(=O)=O)cc2)C(C)C)cc1 [8d]
Ki (Rv3273-β [5]): > 10000 nM | Ki (BpsCA-β [2]): > 10000 nM | Ki (VchCA-α [3]): 62.3 nM | Ki (VchCA-β [4]): 828 nM

C=C(C)[C@H]1CCC(C)(O)C([Se]CC(=O)NCCc2ccc(S(N)(=O)=O)cc2)C1 (stereo partly drawn) [8e]
Ki (VchCA-α [8]): 6.1 nM | Ki (StCA2-β): 8.9 nM | Ki (Rv3273-β [5]): > 10000 nM | Ki (BpsCA-β [2]): > 10000 nM | Ki (VchCA-β [4]): 309 nM

COc1ccc([Se]CC(=O)Nc2ccc([Se]Cc3ccc(S(N)(=O)=O)cc3)cc2)cc1 [9d]
Ki (VchCA-β [6]): 82.9 nM | Ki (StCA2-β): 7.5 nM | Ki (Rv3273-β [5]): > 10000 nM | Ki (BpsCA-β [2]): > 10000 nM | Ki (VchCA-α [3]): 8.9 nM
